For test [1], the target named is T1, IDH1 R132H (Homo sapiens, UniProt O75874, R132H).
T1 construct: made in house; host or cells: Escherichia coli BL21(DE3) pLyS
Put plainly: Circular dichroism (CD) melting temperature, IDH1 R132H. Type of test: binding. The following applies: inhibitor 42 μM, IDH 4.2 μM (0.2 mg/mL); read-out: Δ Tm/°C by CD IDH1 R132H. The protocol: (§1) CD spectra were acquired using a Chirascan CD spectrometer (Applied Photophysics) with a Peltier temperature-control cell holder. Experiments were carried out in a 0.1 cm path length quartz cuvette at 20 °C. […] Spectra were averaged (n = 3) and smoothed (window size = 7) using the Savitzky–Golay filter. The mean residue ellipticity (MRE) was calculated according to the formula [drawing 1] where θ is the degree of ellipticity, N is the number of amino acids, c is the concentration (mol/L), and l is the path length (cm).
(§2) Measurements were conducted in 2 °C increments. The melting temperature was calculated using a Boltzmann sigmoidal model in GraphPad Prism v5.04.
Background: Circular dichroism is the unequal absorption of left and right circularly polarised light.

Test [2] addresses T2, wt IDH1 (Homo sapiens, UniProt O75874).
T2 construct: made in house; host or cells: Escherichia coli BL21(DE3) pLyS
Nature of the test: Circular dichroism (CD) melting temperature, wt IDH1. The test is classed as binding. The following applies: inhibitor 42 μM, IDH 4.2 μM (0.2 mg/mL); read-out: Δ Tm/°C by CD wt IDH1. As for the experimental part:
as §1, §2

The target in test [3] is T2, wt IDH1. Put plainly: Differential scanning fluorimetry (DSF) thermal shift, wt IDH1. Type of test: binding. The following applies: for Δ Tm/°C by DSF wt IDH1: largest change in Tm of IDH1 ([…]) with 3-100 μM inhibitor. The protocol: (§3) Thermal shift experiments were carried out using Sypro Orange and a CFX96 Touch Real-Time PCR Detection System (Bio-Rad) machine.[42] […] The standard assay buffer contains 50 mM tris–HCl at pH 7.5. Various concentrations of compounds (1% DMSO final) were mixed with IDH1 for thermal stabilization studies. […] Bio-Rad CFX Manager was used to determine the melting temperature, Tm.
(Differential scanning fluorimetry follows unfolding on heating by fluorescence.)

Test [4] concerns the target T1, IDH1 R132H. Nature of the test: Differential scanning fluorimetry (DSF) thermal shift, IDH1 R132H. The test is classed as binding. Particulars: largest change in Tm of IDH1 ([…]) with 3-100 μM inhibitor. The protocol:
as §3

The target of test [5] is T2, wt IDH1. Put plainly: Isothermal titration calorimetry (ITC), wt IDH1. Type of test: binding. The protocol: (§4) ITC was conducted using a Malvern MicroCal PEAQ-ITC Automated machine (Malvern Panalytical). In general, IDH1 was prepared in 50 mM tris–HCl, pH 7.5, and the compounds were dissolved in the same buffer. 400 μL of cell solution containing 40 μM IDH1 [4% (v/v) DMSO] and 200 μL of the titrant containing 200 or 400 μM compound [2% or 4% (v/v) DMSO] were transferred to an ITC plate (Malvern Panalytical WEL020854-010). […] The injection setup consisted of 19 injections, with 1 initial injection of 0.4 μL and 18 subsequent injections of 2.0 μL each with 150 s between the injections. Thermodynamic parameters were obtained using MicroCal PEAQ-ITC analysis software.

In test [6] the test system is IDH1 R132H. The following applies: cited from earlier work; for IC50: Table S1, read-out: IC50/nM (reported) IDH1 R132H.
Test [7] has as its target T1, IDH1 R132H. Nature of the test: Absorbance turnover assay (NADPH, 340 nm), IDH1 R132H-catalyzed conversion of 2OG to 2HG. Particulars: for inhibition of IDH1 R132H-catalyzed conversion of 2OG to 2HG: inhibitor 10 μM, IDH1 R132H 400 nM (Figure 3d), in words; for IC50: IDH1 R132H (30 nM), 2OG to 2HG, 100 mM tris-HCl, 10 mM MgCl2, pH 8.0. Type of test: biochemical. The protocol:
(§5) IDH1 activities were measured spectrophotometrically by monitoring changes in NADPH absorbance at 340 nm.[10] […] The difference in absorbance, ΔA340, in the linear range of the reaction profile was converted to % residual activity using a DMSO control as the 100% residual activity reference. […] Experiments were performed in (at least) triplicate. The standard assay buffer for IDH1 consists of 100 mM tris–HCl, 10 mM MgCl2, 0.005% (v/v) Tween 20, pH 8.0, 0.2 mM DTT, and 0.1 mg/mL BSA. In general, compounds [25 μL, 0.4% (v/v) DMSO] were pre-incubated with IDH1 (25 μL) for 12 min, followed by addition of DL-isocitrate/2OG (25 μL) and NADP^+/NADPH (25 μL) to initiate the reaction. The substrate/cofactor concentrations were optimized by determining KM values for substrates/cofactors as described.[10]

The target of test [8] is T2, wt IDH1. Put plainly: Non-denaturing MS binding, wt IDH1. Particulars: Figure S7a. As for the experimental part: (§6) Non-denaturing mass spectra were obtained using a quadrupole time-of-flight mass spectrometer (Synapt HD MS, Waters, Manchester, UK).[44],[45] […] Protein concentrations were measured using a Nanodrop spectrometer (Thermo Scientific NanoDrop One). Compounds were dissolved in MeOH to avoid DMSO interference with mass spectra. IDH1 (20 μL of 50 μM final) and the compound of interest (1–4% (v/v) MeOH) in 200 mM ammonium acetate at pH 7.5 were pipetted into wells of a sample plate of an automated chip-based nano-electrospray ion source (TriVersa Nanomate, Advion, Ithaka, NY, USA). Compounds were serially diluted in buffer and mixed with IDH1 diluted in buffer. The mixture was sprayed through a nozzle in a Nanomate chip at a spray voltage of 1.8–2.0 kV (spray backing gas pressure 0.8–1.0 psi, inlet pressure 3.8 mbar). […] Data collection and analyses used Waters MassLynx software. Mass spectra were calibrated externally using CsI solution. KD values were calculated using eq 2 as reported[46] at each compound concentration and are reported as an average across multiple concentrations. For inhibitors with a binding stoichiometry of two inhibitors/IDH dimer, the inhibitor-bound protein peak intensity used was a sum of first and second inhibitor-bound protein peak intensities. Data for the IDH1 dimer m/z = 20^+ charge state are shown. For clarity, only 2× NADPH bound protein peaks are annotated.

Test [9] concerns the target T1, IDH1 R132H. Nature of the test: Ligand-observed 1H NMR (CPMG-edited, 700 MHz) binding, IDH1 R132H. Particulars: line broadening, 10 μM inhibitor, 50 mM tris-D11-HCl pH 7.5. As for the experimental part:
(§7) Additional solvent presaturation was applied for 2 s. Samples contained 160 μL of 10 μM compound (0.2% DMSO) in 50 mM tris-D11-HCl, pH 7.5 in 90% H2O/10% D2O (v/v). […] 200 or 400 scans per IDH concentration were recorded, and signals corresponding to the compound were integrated and processed using TopSpin 3.6.1 software.

Test [10] concerns the target T1, IDH1 R132H. Put plainly: Isothermal titration calorimetry (ITC), IDH1 R132H. Particulars: 40 μM IDH1, 50 mM tris-HCl pH 7.5, 25 °C. Type of test: binding. The protocol:
as §4
On the technique in general: In ITC the heat of successive injections is recorded.

Test [11] has as its target T2, wt IDH1. Put plainly: Ligand-observed 1H NMR (CPMG-edited, 700 MHz) binding, wt IDH1. Particulars: line broadening, 10 μM inhibitor, 50 mM tris-D11-HCl pH 7.5. As for the experimental part: as §7
The target of test [12] is T2, wt IDH1. Nature of the test: Absorbance turnover assay (NADPH, 340 nm), wt IDH1-catalyzed conversion of isocitrate to 2OG. The following applies: wt IDH1 (2 nM); for IC50: isocitrate to 2OG, 100 mM tris-HCl, 10 mM MgCl2, pH 8.0, read-out: IC50/nM wt IDH1. The test is classed as biochemical. As for the experimental part: (Figure 3, Scheme 1). […] We employed ^1H NMR (700 MHz) spectroscopy to simultaneously monitor NADPH, NADP^+, 2OG, and 2HG levels (Figure S3) in order to validate observations from the absorbance assays.
as §5

Test [13] concerns the target T1, IDH1 R132H. Nature of the test: Non-denaturing MS binding, IDH1 R132H. Particulars: Figure S7b. The protocol: as §6

Consider five compounds from publication PMC10108345, “Differentiating Inhibition Selectivity and Binding Affinity of Isocitrate Dehydrogenase 1 Variant Inhibitors” (Journal of Medicinal Chemistry, 2023).

pIC50: −log10 of the molar value. Like-named read-outs stand apart in the source and are kept apart here.

The term Kd denotes the constant that tells how readily two partners part at equilibrium. Read a low Kd as higher affinity. The term pIC50 denotes the IC50 on a negative log10 scale, so that one unit is a factor of ten.

T2 sequence (O75874 whole entry): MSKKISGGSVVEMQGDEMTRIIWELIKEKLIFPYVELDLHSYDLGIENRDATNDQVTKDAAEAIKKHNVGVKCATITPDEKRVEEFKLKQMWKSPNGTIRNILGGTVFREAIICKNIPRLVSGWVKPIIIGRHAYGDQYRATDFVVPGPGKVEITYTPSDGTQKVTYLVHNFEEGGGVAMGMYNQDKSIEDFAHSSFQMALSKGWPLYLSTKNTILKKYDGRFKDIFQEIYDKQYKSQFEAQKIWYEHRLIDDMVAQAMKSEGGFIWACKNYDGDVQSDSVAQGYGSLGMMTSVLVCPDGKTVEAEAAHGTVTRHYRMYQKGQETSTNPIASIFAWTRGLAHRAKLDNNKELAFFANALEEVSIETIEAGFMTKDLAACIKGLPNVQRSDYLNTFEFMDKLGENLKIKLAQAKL
T1 sequence (O75874 whole entry R132H): as the sequence (O75874 whole entry) above, with R132H counted along it

With `N#Cc1ccnc(N2C(=O)CC[C@H]2C(=O)N(c2cncc(F)c2)[C@H](C(=O)NC2CC(F)(F)C2)c2ccccc2Cl)c1` [Ivosidenib], the ΔTm at 42 µM at IDH1 R132H [1] came out at 11.2 °C; on wt IDH1 [2], 7.6 °C. At wt IDH1 [3], the “Δ Tm/°C by DSF wt IDH1” value came out at 9.4 °C. At IDH1 R132H [4], the “Δ Tm/°C by DSF IDH1 R132H” value was 8.5 °C. In addition, on wt IDH1 [5] (dimeric IDH1 (wt IDH1 and IDH1 R132H, Figure 4b)), the “N, inhibitor-binding stoichiometry by ITC” value is recorded as about 0.5.
`C[C@@H](Nc1nc(N[C@H](C)C(F)(F)F)nc(-c2cccc(Cl)n2)n1)C(F)(F)F` [Vorasidenib]: the ΔTm at 42 µM was 4.1 °C on IDH1 R132H [1] and 7.1 °C on wt IDH1 [2]. Besides, the IC50 in the test on IDH1 R132H [6] ("/" = different incubation times, ref 13 (supplementary references)) is 6 nM; in the test on IDH1 R132H [6] (ref 3 (supplementary references)) it was 31.9 nM. In addition, the “inhibition of IDH1 R132H-catalyzed conversion of 2OG to 2HG” value on IDH1 R132H [7] is recorded as “incomplete inhibition”. Further, the “Δ Tm/°C by DSF wt IDH1” value on wt IDH1 [3] came to 8.5 °C. Besides, on IDH1 R132H [4], the “Δ Tm/°C by DSF IDH1 R132H” value worked out at 6.2 °C.
With `COc1c(C)cc(NC(=O)c2nn(Cc3ccc(F)cc3)c3c2CN(C(=O)c2ccc[nH]2)C[C@]3(C)C(N)=O)cc1C` [GSK864], on wt IDH1 [8], the “stoichiometry, inhibitors per IDH1 dimer, wt IDH1” value was 2. Also, the Kd on IDH1 R132H [9] was 4.1 µM; on IDH1 R132H [10] it was over 400 µM; on wt IDH1 [11], 2.7 µM; on wt IDH1 [5] (40 μM IDH1, 50 mM tris-HCl pH 7.5, 25 °C), over 400 µM. The figures for the ΔTm at 42 µM on IDH1 R132H [1] and on wt IDH1 [2] were 8.7 °C and 6.7 °C, respectively. Further, on IDH1 R132H [7], the “inhibitory selectivity for IDH1 R132H over wt IDH1” value is given as over 40 fold. Moreover, the “Selectivity against IDH1 R132H over IDH1 wt” value on IDH1 R132H [7] (IC50 (IDH1 wt)/IC50 (IDH1 R132H)) was 55. Besides, the IC50 at IDH1 R132H [7] came out at 20 nM; at wt IDH1 [12] it was 1100 nM. The pIC50 at wt IDH1 [12] (read-out: IC50 for inhibition of wt IDH1) was over 5.00. Moreover, on wt IDH1 [3], the “Δ Tm/°C by DSF wt IDH1” value is 9.1 °C. The “Δ Tm/°C by DSF IDH1 R132H” value at IDH1 R132H [4] was 7.9 °C. Also, the “stoichiometry, inhibitors per IDH1 dimer, IDH1 R132H” value on IDH1 R132H [13] is recorded as 2.
As for `O=C(Nc1cccc(C(F)(F)F)c1)Nc1cc(S(=O)(=O)NC2CC2)ccc1-c1ccsc1` [AGI-6780], the IC50 at IDH1 R132H [7] and at wt IDH1 [12] was over 10000 nM in each case. Also, the “thermal stabilisation of wt IDH1 by DSF” value on wt IDH1 [3] (inhibitor 3.125-100 μM, in words) is “weakly stabilise”. The “Δ Tm/°C by DSF wt IDH1” value at wt IDH1 [3] is 3.3 °C. The “Δ Tm/°C by DSF IDH1 R132H” value on IDH1 R132H [4] came out at 1.3 °C.
As for `Cc1cc(Cc2ccccc2)n(O)c(=O)c1` [SYC-435], the pIC50 with IDH1 R132H [6] (read-out: reported IC50 against IDH1 R132H) is 6.72. Also, at IDH1 R132H [7], the “inhibition of IDH1 R132H-catalyzed conversion of 2OG to 2HG” value is “relatively weak inhibition”. Also, the “Δ Tm/°C by DSF wt IDH1” value at wt IDH1 [3] was found to be 0.7 °C. For the same compound, on IDH1 R132H [4], the “Δ Tm/°C by DSF IDH1 R132H” value was 0.5 °C.
